Source: patent US20160331754A1, “THERAPIES FOR TREATING CANCERS” (GILEAD SCIENCES, INC., priority 2014, published 2016)
Values joined by “and” are separate entries in the source; they are usually repeats but may differ in a detail not shown here. Identical values can stand only once.

Tests used:
p-AKT Ser473 [1] = assay: Flow cytometry, TPO-activated AKT phosphorylation in CD34+ progenitor cells from MF patients; type: cell-based, human; settings: for p-AKT (table title: percentage of Annexin-V positive cells): cells from Compound A-treated MF patients; for normalized percentage of TPO-activated AKT phosphorylation (p-AKT): TPO-treated vehicle=100
Protocol: (§1) PBMCs were isolated from whole blood of myelofibrosis (MF) patients who had not received treatments (i.e. naïve patients) or received ruxolitinib (i.e. rux-treated patients). The cells were treated with 0.02, 0.2, or 2.0 μM of Compound B or vehicle (0.1% DMSO in 0.1% FBS/RPMI) for 2 hours at 37° C. The cells were then fixed, permeabilized, and stained for FACS analysis. Antibodies specific to p-AKT Ser473 and pS6RP Ser235/236 were used to detect AKT phosphorylation (p-AKT) and S6RP phosphorylation (p-S6RP) in CD34^+/CD3^−/CD14^−/CD19/CD66^− (BD Biosciences) gated cells using flow cytometry. The percentage of basal (i.e. untreated with TPO) AKT and S6RP phosphorylation were normalized to vehicle control. A two-tailed paired t-test (GraphPad Prism) was used to calculate p-values. Values of p<0.05 were considered significant.
Also, PBMC cells from naïve or ruxolitinib treated patients were isolated and treated with Compound B and with TPO as described above. The percentage of TPO-activated AKT and S6RP phosphorylation were normalized to those of TPO-treated vehicle (“no TPO” values in Table 4). […] Also, the inhibition to PI3K signaling was dose-dependent to Compound B.
(§2) Similar studies were conducted with PI3K inhibitors Compounds C and D. PBMC from MF patients had received ruxolitinib (rux) and MF patient had received Compound A. The cells were treated with Compounds C or D at 0, 20.0, 200.0, 2000.0 nM for 2 hours at 37° C. Cells were treated with TPO for 10 minutes. The percentage of basal p-AKT and p-S6RP levels were normalized to vehicle control and those of TPO-treated were normalized to TPO-treated vehicle control. The PI3Kδ inhibitors Compound C is referred by the chemical names of (S)-2-(1-((9H-purin-6-yl)amino)ethyl)-6-fluoro-3-phenylquinazolin-4(3H)-one.

WIL2-S target cells = assay: Antibody-dependent cellular phagocytosis (ADCP) with polarized macrophages; type: cell-based; settings: Homo sapiens, Macrophage, 256 nM
Protocol: Next, antibody-dependent cellular phagocytosis (ADCP) was characterized. The CD14^+ negatively selected monocytes (Astarte Biologics, Bothell, Wash.) were cultured in Gibco AIM V Medium CTS (Life Technologies, Grand Island, N.Y.) with macrophage colony-stimulating factor (PeproTech, Rocky Hill, N.J.) at 60 ng/mL. At Day 6 or 7, monocyte-derived macrophages were washed and plated with polarizing cytokines. For differentiation to M1 macrophages, cells were plated with interferon-γ 100 ng/mL (R&D Systems, Minneapolis, Minn.) and lipopolysaccharides from E. coli 055:B5 100 ng/mL (Sigma-Aldrich, St Louis, Mo.) for 24 hours. For differentiation to M2c macrophages, cells were plated in interleukin-10 10 ng/mL (R&D Systems) for 48 hours. Compound B titration was added to the plated macrophages and incubated at 37° C. for about 1 hour. […] Cells were then stained with pooled FITC anti-CD14 (Becton, Dickinson and Company, Franklin Lakes, N.J.) and FITC anti-CD11b (eBioscience, San Diego, Calif.), harvested from 96-well plates with Accutase (Merck Millipore, Darmstadt, Germany) and vigorous pipetting, and analyzed on an LSR II flow cytometer (Becton, Dickinson and Company). Double-positive cells (FITC+CellTracker Red) represented phagocytized target cells and the levels of phagocytosis were calculated as % double-positive cells/% double positive cells+% target cells alone×100. […]

[2] = test system: NK-cell expression of CD107a and CD16; assay: Antibody potency and NK-cell expression of CD107a and CD16; type: cell-based; settings: data not shown
p-AKT Ser473 [3] = assay: Flow cytometry, basal AKT phosphorylation in CD34+ progenitor cells from MF patients; type: cell-based, human; settings: one line per patient, vehicle=100
Protocol: as §1, §2

pS6 Ser235/236 = assay: Western blot, TPO-activated S6 phosphorylation in BaF3/MPL cells; type: cell-based; settings: then TPO
Protocol: In addition, Compound B was examined for the effects on the PI3K signaling pathway by determining the levels of AKT and S6 phosphorylation with or without TPO activation. Two cell lines, BaF3/MPL and UT-7/TPO sensitive or responsive to TPO activation were used. The cells were starved (i.e. growing on medium having less FBS) in […] FBS/RPMI for two hours before treated with 0.1, 1.0, or 2.0 μM of Compound B or vehicle (0.1% DMSO in RPMI) for 2 hours at 37° C. To examine the TPO-activated phosphorylation, the cells were then treated or activated with 50 ng/mL of human recombinant TPO (Peprotech) for 10 minutes at 37° C. The TPO activation or treatment may reflect the conditions in diseased cells as the PI3K pathway is activated by TPO in myelofibrosis. After treating with compound and/or TPO, the cells were collected, lysed by lysis buffer (Cell Signaling), separated by SDS-PAGE, and analyzed by the Western blot using antibodies specific to p-AKT Ser473 or pS6 Ser235/236 (Cell Signaling). The phosphorylation levels in treated cells were calculated and compared to those of untreated cells (i.e. vehicle as negative control).

In the case of `CC[C@H](Nc1ncnc2[nH]cnc12)c1nc2cccc(F)c2c(=O)n1-c1ccccc1` [Compound B, (S)-2-(1-((9H-purin-6-yl)amino)propyl)-5-fluoro-3-phenylquinazolin-4(3H)-one], the “p-AKT (table title: percentage of Annexin-V positive cells)” value (p-AKT Ser473 [1]; 0.02 μM, column 0 = 100) is reported as 56% and 74% and 51%, the “normalized percentage of TPO-activated AKT phosphorylation (p-AKT)” value (p-AKT Ser473 [1]; 0.02 μM, naïve MF patients, one line per patient) is reported as 43% and 60% and 58% and the “normalized percentage of TPO-activated AKT phosphorylation (p-AKT)” value (p-AKT Ser473 [1]; 0.02 μM, rux-treated MF patients) is reported as 59% and 60% and 78% and 55% and 57%. For the same molecule, the “p-AKT (table title: percentage of Annexin-V positive cells)” value (p-AKT Ser473 [1]; 0.2 μM) was 49% and 71% and 51%, the “normalized percentage of TPO-activated AKT phosphorylation (p-AKT)” value (p-AKT Ser473 [1]; 0.2 μM, naïve MF patients) was 30% and 32% and 41% and the “normalized percentage of TPO-activated AKT phosphorylation (p-AKT)” value (p-AKT Ser473 [1]; 0.2 μM, rux-treated MF patients) was 39% and 52% and 55% and 57% and 36% and 33%. The “normalized percentage of TPO-activated AKT phosphorylation (p-AKT)” value (p-AKT Ser473 [1]; 2.0 μM, naïve MF patients) was 28% and 32% and 27%, the inhibition at 0.256 µM (WIL2-S target cells) was < 30% and the “reduction of the potency of both anti-CD20 antibodies” value ([2]; Compound B 256 nM with obinutuzumab or rituximab 0.01-1000 ng/mL) was 0 to 15%. The “NK-cell degranulation, surface expression of CD107a” value ([2]; in 2 of 3 samples) was “inhibited NK-cell degranulation”, the “normalized percentage of basal AKT phosphorylation (p-AKT)” value (p-AKT Ser473 [3]; 0.02 μM 2 h, naïve MF patients) was 99% and 102% and 83% and 88% and 84% and the “normalized percentage of basal AKT phosphorylation (p-AKT)” value (p-AKT Ser473 [3]; 0.02 μM 2 h, rux-treated MF patients) was 88% and 89% (2×) and 91% and 57% and 96% and 100%. The “normalized percentage of basal AKT phosphorylation (p-AKT)” value (p-AKT Ser473 [3]; 0.2 μM 2 h, naïve MF patients) was 64% and 127% and 75% and 76% and 81% and 72%, the “normalized percentage of basal AKT phosphorylation (p-AKT)” value (p-AKT Ser473 [3]; 0.2 μM 2 h, rux-treated MF patients) was 85% and 78% and 81% and 82% (2×) and 52% and 87% and the “normalized percentage of basal AKT phosphorylation (p-AKT)” value (p-AKT Ser473 [3]; 2 μM 2 h, naïve MF patients) was 55% and 96% and 66% (2×) and 70% and 47%. For the same molecule, the “normalized percentage of basal AKT phosphorylation (p-AKT)” value (p-AKT Ser473 [3]; 2 μM 2 h, rux-treated MF patients) was 69% and 77% and 83% and 84% and 43% and 98% and 79%, the “reduced p-S6 levels vs vehicle” value (pS6 Ser235/236; 0.1 μM 2 h) was 24% and the “reduced p-S6 levels vs vehicle” value (pS6 Ser235/236; 1.0 μM 2 h) was 27%. The “reduced p-S6 levels vs vehicle” value (pS6 Ser235/236; 2.0 μM 2 h) was 41%.
